Measurements taken from ChEMBL document CHEMBL1201862, “PubChem BioAssay data set” (2004).
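Tested at 5 concentrations; 48 h exposure; 96-well plates; endpoints linearly interpolated, else capped at highest concentration. GI50: concentration for 50% inhibition of growth.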 The source made the active and inactive calls. Cut-off read from the data, not from the text of the source: active = GI50 up to about 1.1 µM and inactive = higher. Starred links: 1 amine or outer side, 2 acyl side, 3 side chain; linkers in the order of their positions; H or OH if unused. Non-standard residues stand in square brackets, D forms with d. Residues, ends and D or L forms follow the SMILES beside them. X41 = CSCCCC(N[*:1])C(=O)[*:2]

Columns and labels:
Experiment in all cases: growth of human tumour cells (NCI), 48 h
A549 = system: A549
CAKI-1 = system: CAKI-1
HL-60 = system: HL-60
HOP-62 = system: HOP-62
HOP-92 = system: HOP-92
IGROV-1 = system: IGROV-1
KM12 = system: KM12
LOX IMVI = system: LOX IMVI
MCF7 = system: MCF7
MDA-N = system: MDA-N
Malme-3M = system: Malme-3M
NCI-H460 = system: NCI-H460
NCI-H522 = system: NCI-H522
RPMI-8226 = system: RPMI-8226
RXF 393 = system: RXF 393
SK-OV-3 = system: SK-OV-3
SNB-19 = system: SNB-19
T47D = system: T47D
U-251 = system: U-251
NCI-H226 = system: NCI-H226

Measured: GI50

COc1cc(/C=C/C=C2\CCC/C(=C\C=C\c3ccc(O)c(OC)c3)C2=O)ccc1O
inactive: A549 4.85 µM | CAKI-1 7.23 µM | HL-60 7.13 µM | HOP-62 17.3 µM | HOP-92 12 µM | IGROV-1 6.7 µM | KM12 24.7 µM | LOX IMVI 7.91 µM | MCF7 5.24 µM | MDA-N 3.91 µM | Malme-3M 10.6 µM | NCI-H460 13.8 µM | RPMI-8226 5.4 µM | RXF 393 10.8 µM | SK-OV-3 5.81 µM | SNB-19 31.7 µM | T47D 8.32 µM | U-251 17.7 µM
active: NCI-H522 0.895 µM

COc1cc(Nc2ccc3c(c2)CCC3)nc(OC)n1
inactive: A549 26.5 µM | CAKI-1 37.9 µM | HL-60 29.6 µM | HOP-62 54.6 µM | HOP-92 32.4 µM | IGROV-1 31.4 µM | KM12 27.9 µM | LOX IMVI 45.7 µM | MCF7 29.6 µM | MDA-N 26.1 µM | Malme-3M 32.1 µM | NCI-H226 32.5 µM | NCI-H460 30.8 µM | NCI-H522 21.4 µM | RPMI-8226 14.7 µM | SK-OV-3 50 µM | SNB-19 43.6 µM | T47D 26.4 µM | U-251 > 100 µM

CC(C)(C)Cc1cc(O)ccc1O
inactive: A549 58.9 µM | CAKI-1 > 100 µM | HL-60 6.73 µM | HOP-62 > 100 µM | HOP-92 > 100 µM | IGROV-1 > 100 µM | KM12 64.9 µM | LOX IMVI 60.3 µM | MCF7 74.8 µM | MDA-N 43.2 µM | Malme-3M > 100 µM | NCI-H226 > 100 µM | NCI-H460 63.4 µM | NCI-H522 27 µM | RXF 393 98.6 µM | SK-OV-3 > 100 µM | SNB-19 49.9 µM | T47D 60.5 µM | U-251 43.5 µM

CCCCCC(C)C[C@H]1CO[C@H](c2ccc[nH]2)N[C@H]1C(=O)OC (some centres not stated)
inactive: A549 > 100 µM | CAKI-1 > 100 µM | HL-60 > 100 µM | HOP-62 > 100 µM | HOP-92 29.9 µM | IGROV-1 > 100 µM | KM12 > 100 µM | LOX IMVI > 100 µM | MCF7 > 100 µM | MDA-N > 100 µM | Malme-3M > 100 µM | NCI-H460 > 100 µM | NCI-H522 > 100 µM | RPMI-8226 > 100 µM | RXF 393 > 100 µM | SK-OV-3 > 100 µM | SNB-19 > 100 µM | T47D > 100 µM | U-251 > 100 µM

CCC(=O)OCc1ccc2oc(=O)c(C(=O)Oc3cncc(Cl)c3)cc2c1
inactive: A549 > 100 µM | CAKI-1 > 100 µM | HOP-62 > 100 µM | HOP-92 63.2 µM | IGROV-1 > 100 µM | KM12 > 100 µM | LOX IMVI > 100 µM | MCF7 76.4 µM | MDA-N > 100 µM | Malme-3M 66.7 µM | NCI-H226 > 100 µM | NCI-H460 > 100 µM | NCI-H522 29.2 µM | RPMI-8226 > 100 µM | RXF 393 37.4 µM | SK-OV-3 > 100 µM | SNB-19 > 100 µM | T47D 98.6 µM | U-251 > 100 µM

COC12CCCN1c1ccn(Cc3ccccc3)c(=O)c1C2=O (configuration not stated)
inactive: A549 > 100 µM | CAKI-1 > 100 µM | HL-60 66.1 µM | HOP-92 > 100 µM | IGROV-1 > 100 µM | KM12 > 100 µM | LOX IMVI > 100 µM | MCF7 > 100 µM | MDA-N > 100 µM | Malme-3M > 100 µM | NCI-H226 > 100 µM | NCI-H460 > 100 µM | NCI-H522 > 100 µM | RXF 393 > 100 µM | SK-OV-3 > 100 µM | SNB-19 > 100 µM | T47D > 100 µM | U-251 > 100 µM

COC1C(=O)N(SC)C1c1ccccc1Cl (configuration not stated)
inactive: A549 > 100 µM | CAKI-1 80.5 µM | HL-60 16.7 µM | HOP-62 > 100 µM | HOP-92 36.1 µM | IGROV-1 18.7 µM | KM12 > 100 µM | LOX IMVI 42.2 µM | MCF7 19.7 µM | MDA-N 34.6 µM | Malme-3M 22.6 µM | NCI-H460 > 100 µM | NCI-H522 16.6 µM | RPMI-8226 19.6 µM | RXF 393 > 100 µM | SK-OV-3 > 100 µM | SNB-19 > 100 µM | T47D 27.4 µM | U-251 52.4 µM

Oc1c(CN2CCN(c3ccccc3)CC2)cc(Br)c2cccnc12
active: HL-60 0.485 µM | IGROV-1 0.834 µM | LOX IMVI 0.52 µM | MCF7 0.966 µM | MDA-N 0.855 µM | Malme-3M 0.995 µM | NCI-H460 0.244 µM | NCI-H522 0.555 µM | RPMI-8226 0.361 µM | U-251 0.671 µM
inactive: A549 1.43 µM | CAKI-1 1.21 µM | HOP-62 1.33 µM | HOP-92 2.2 µM | KM12 1.56 µM | RXF 393 1.46 µM | SK-OV-3 3.21 µM | SNB-19 1.69 µM | T47D 1.32 µM

Cc1oc2nc1C(=O)NCc1nc(cs1)C(=O)N[C@H](C(C)C)c1nc(cs1)C(=O)N[C@H]2C
inactive: A549 47.2 µM | CAKI-1 44.9 µM | HOP-62 85.1 µM | HOP-92 61.1 µM | IGROV-1 29.9 µM | KM12 61.4 µM | MCF7 82.2 µM | MDA-N > 100 µM | Malme-3M > 100 µM | NCI-H226 42.9 µM | NCI-H460 66.7 µM | NCI-H522 26.7 µM | RPMI-8226 14.3 µM | RXF 393 8.34 µM | SK-OV-3 > 100 µM | SNB-19 > 100 µM | T47D 28.5 µM | U-251 > 100 µM

COc1ccc(/N=C2\C(=N/c3ccc(OC)cc3)N(S(=O)(=O)c3ccccc3)C(=S)N2c2ccc(OC)cc2)cc1
inactive: A549 > 100 µM | CAKI-1 > 100 µM | HOP-62 > 100 µM | HOP-92 > 100 µM | IGROV-1 > 100 µM | KM12 > 100 µM | MCF7 > 100 µM | MDA-N > 100 µM | NCI-H226 > 100 µM | NCI-H522 > 100 µM | RPMI-8226 > 100 µM | RXF 393 46.2 µM | SK-OV-3 > 100 µM | SNB-19 > 100 µM | T47D > 100 µM | U-251 > 100 µM

CSCCCC(NC(=O)CNC(=O)C1CCCN1C(=O)C(Cc1ccc(O)cc1)NC(=O)C(Cc1ccccc1)NC(=O)C(CCCNC(=N)N)NC(=O)C(CC(=O)O)NC(=O)C1CCCN1C(=O)C(CC(=O)O)NC(=O)C1CCCN1C(=O)C1CCCN1C(=O)CN)C(N)=O (configuration not stated) (H-GPPDPDRFYPG[X41]-NH2; configuration not given here)
inactive: A549 > 50 µM | CAKI-1 > 50 µM | HL-60 > 50 µM | HOP-62 > 50 µM | HOP-92 > 50 µM | IGROV-1 > 50 µM | KM12 > 50 µM | LOX IMVI > 50 µM | MCF7 > 50 µM | MDA-N > 50 µM | Malme-3M > 50 µM | NCI-H226 > 50 µM | NCI-H522 > 50 µM | RPMI-8226 > 50 µM | SK-OV-3 > 50 µM | SNB-19 > 50 µM | T47D > 50 µM | U-251 > 50 µM

NNC(=O)CS(=O)(=O)Nc1ncccn1
inactive: A549 > 100 µM | CAKI-1 > 100 µM | HOP-62 > 100 µM | HOP-92 > 100 µM | IGROV-1 > 100 µM | KM12 > 100 µM | LOX IMVI > 100 µM | MCF7 > 100 µM | MDA-N > 100 µM | Malme-3M > 100 µM | NCI-H226 > 100 µM | NCI-H460 > 100 µM | NCI-H522 > 100 µM | RPMI-8226 > 100 µM | RXF 393 > 100 µM | SK-OV-3 > 100 µM | SNB-19 > 100 µM | T47D > 100 µM | U-251 > 100 µM

CC(C)N1[C@@H]2CCCC[C@H]2N(C(C)C)[PH]1=O
inactive: A549 > 100 µM | CAKI-1 > 100 µM | HOP-62 > 100 µM | HOP-92 > 100 µM | KM12 > 100 µM | MCF7 > 100 µM | MDA-N > 100 µM | NCI-H226 > 100 µM | NCI-H460 > 100 µM | NCI-H522 > 100 µM | RPMI-8226 > 100 µM | RXF 393 > 100 µM | SK-OV-3 > 100 µM | T47D > 100 µM

Cc1ccc(-c2n[nH]c(=O)n2N)cc1
inactive: A549 > 100 µM | CAKI-1 > 100 µM | HL-60 > 100 µM | HOP-62 > 100 µM | HOP-92 > 100 µM | IGROV-1 > 100 µM | KM12 > 100 µM | LOX IMVI > 100 µM | MCF7 > 100 µM | MDA-N > 100 µM | Malme-3M > 100 µM | NCI-H226 > 100 µM | NCI-H460 > 100 µM | NCI-H522 > 100 µM | RPMI-8226 > 100 µM | SK-OV-3 > 100 µM | SNB-19 > 100 µM | T47D > 100 µM | U-251 > 100 µM

Clc1ccc(/C=C/c2nc(-c3ccccc3)cn3c2nc2ccccc23)cc1Cl
inactive: A549 59.6 µM | HL-60 19.6 µM | HOP-62 59.2 µM | HOP-92 70 µM | IGROV-1 36.1 µM | KM12 31.4 µM | LOX IMVI 59.8 µM | MCF7 34.8 µM | MDA-N 60 µM | NCI-H226 > 100 µM | NCI-H460 32.7 µM | RPMI-8226 41.9 µM | RXF 393 50.7 µM | SK-OV-3 > 100 µM | SNB-19 59.6 µM | T47D 41.7 µM | U-251 42 µM
